Where only a bound is given, the exact number is not on record here.

Our source for the IC50 values is US20250171465A1, “AKT INHIBITORS” (Stablix, Inc., priority 2023, published 2025).

What all share (assay type): cell-based
For experiment [1], the system named is MDAMB468.1. Nature of the experiment: Cell Titer Glo (CTG) proliferation assay, MDA-MB-468. Conditions: Homo sapiens, MDA-MB-468; MDAMB468.1 cells, 72.0 hrs.; read-out: AVE CTG Proliferation MDAMB468.1 72.0 hrs. The method, boiled down:
(§1)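 After overnight seeding at 37 °C, 5% CO2, cells were exposed to compound for 3 days. Viability read by CellTiter-Glo luminescence after 30 min at room temperature.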
On the technique in general: Cellular ATP, detected with luciferase, serves as a proxy for viable cell number.

Experiment [2] relates to MDAMB231.1. Put plainly: Cell Titer Glo (CTG) proliferation assay, MDA-MB-231. To be noted: Homo sapiens, MDA-MB-231; MDAMB231.1 cells, 72 hrs.; read-out: AVE CTG Proliferation MDAMB231.1 72 hrs. The protocol:
Seed cells in 40 μL of cell culture media into each well of 384-well cell culture plate, spin them at room temperature at 1,000 RPM for 1 minute and then transfer the plates into 37° C. 5% CO2 incubator overnight. Next day, treat cells with 40 nL of diluted compound and return to incubator. After compound treatment for 3 days, Add 30 μL of CellTiter-Glo reagent (Promega) into each well to be detected. Then place the plates at room temperature for 30 min followed by reading on EnVision. Inhibition activity calculated as % DMSO=100×(LumSample-Lum low control)/(Lum high control-Lum low control) where high control is from cells treated with 0.1% DMSO and Low control obtained from PBS only. Use XLFit (equation 201) to calculate IC50 (A+ ((B−A)/(1[…]((x/C)^D)))) where A: Bottom, B: Top, C: IC50, D: Slope.

Experiment [3] concerns KU1919.1. Nature of the experiment: Cell Titer Glo (CTG) proliferation assay, KU1919. To be noted: Homo sapiens, KU-19-19; KU1919.1 cells, 72.0 hrs.; read-out: AVE CTG Proliferation KU1919.1 72.0 hrs. The method, boiled down:
as §1

Consider `CCc1cccc(-c2cnc(C(=O)N3CCN(CC4CCN(CC(=O)NCCNC[C@@H](C(=O)N5CCN(c6ncnc7c6[C@H](C)C[C@H]7O)CC5)c5ccc(Cl)cc5)CC4)CC3)c(NC(=O)OC(C)(C)C)c2)c1` [Compound I-306], for which the IC50 in experiment [1], in experiment [2] and in experiment [3] was 1 to 5 µM throughout.

As for `NC1(C(=O)N[C@@H](CCN2CCC(OC3CCN(C(=O)c4cccc(C5CCCN(C(=O)CNC6CC6)C5)c4)CC3)CC2)c2ccc(Cl)cc2)CCN(c2ncnc3[nH]ccc23)CC1` (stereo partly drawn) [Compound I-252], the IC50 is 5 to 10 µM in experiment [1], greater than 10 µM in experiment [2] and 5 to 10 µM in experiment [3].

Turning to `C[C@@H]1C[C@@H](O)c2ncnc(N3CCN(C(=O)[C@H](CNCCNC(=O)CN4CCC(OC5CCN(C(=O)[C@H](NC(=O)c6cccc(C7CCCN(C(=O)CNC8CC8)C7)c6)C6CCCCC6)CC5)CC4)c4ccc(Cl)cc4)CC3)c21` (stereo partly drawn) [Compound I-209], the IC50 in experiment [1], in experiment [2] and in experiment [3] was 5 to 10 µM each time.

Turning to `CCc1cccc(-c2cnc(C(=O)N3CCN(CC4CCN(CC(=O)NCCNC[C@@H](C(=O)N5CCN(c6ncnc7c6[C@H](C)C[C@H]7O)CC5)c5ccc(Cl)cc5)CC4)CC3)c(N)c2)c1` [Compound I-213], the IC50 in experiment [1], in experiment [2] and in experiment [3] was 1 to 5 µM throughout.

Turning to `NC1(C(=O)N[C@@H](CCN2CCN(C(=O)CN3CCC(OC4CCN(C(=O)[C@H](NC(=O)c5cc(C6CN(C(=O)CNCc7ccc(F)cc7F)C6)ccc5F)C5CCCCC5)CC4)CC3)CC2)c2ccc(Cl)cc2)CCN(c2ncnc3[nH]ccc23)CC1` [Compound I-226], the IC50 is 1 to 5 µM in experiment [1], 1 to 5 µM in experiment [2] and 0.5 to 1 µM in experiment [3].

Take `CCOc1cc(OC)ccc1CNCC(=O)N1CCC[C@H](c2cccc(C(=O)N[C@@H](C(=O)N3CCN(CC4CCN(CC(C(=O)N5CCN(c6ncnc7c6[C@H](C)C[C@H]7O)CC5)c5ccc(Cl)cc5)CC4)CC3)C3CCCCC3)c2)C1` (stereo partly drawn) [Compound I-219]: the IC50 is 1 to 5 µM in experiment [1], 1 to 5 µM in experiment [2] and 0.5 to 1 µM in experiment [3].

Turning to `NC1(C(=O)N[C@@H](CCN2CCN(C(=O)CN3CCC(OC4CCN(C(=O)[C@H](NC(=O)c5ccc(C6CN(C(=O)CNCc7ccc(F)cc7F)C6)cc5)C5CCCCC5)CC4)CC3)CC2)c2ccc(Cl)cc2)CCN(c2ncnc3[nH]ccc23)CC1` [Compound I-230], the IC50 in experiment [1], in experiment [2] and in experiment [3] was 1 to 5 µM each time.

In the case of `C[C@@H]1C[C@@H](O)c2ncnc(N3CCN(C(=O)[C@H](CNCCNC(=O)CN4CCC(CN5CCN(C(=O)c6cccc(C7CCCN(C(=O)CNCc8ccc(F)cc8F)C7)c6)CC5)CC4)c4ccc(Cl)cc4)CC3)c21` (stereo partly drawn) [Compound I-207], the IC50 in experiment [1], in experiment [2] and in experiment [3] was greater than 10 µM throughout.

Regarding `NC1(C(=O)N[C@@H](CCN2CCN(C(=O)CN3CCC(OC4CCN(C(=O)[C@H](NC(=O)c5cc(C6CCCN(C(=O)C7CC7)C6)ccc5F)C5CCCCC5)CC4)CC3)CC2)c2ccc(Cl)cc2)CCN(c2ncnc3[nH]ccc23)CC1` (stereo partly drawn) [Compound I-224], the IC50 in experiment [1], in experiment [2] and in experiment [3] was 1 to 5 µM each time.

`NC1(C(=O)N[C@@H](CCN2CCN(C(=O)CN3CCC(OC4CCN(C(=O)[C@H](NC(=O)c5cc(C6CN(C(=O)C7CC7)C6)ccc5F)C5CCCCC5)CC4)CC3)CC2)c2ccc(Cl)cc2)CCN(c2ncnc3[nH]ccc23)CC1` [Compound I-227]: the IC50 in experiment [1], in experiment [2] and in experiment [3] was 1 to 5 µM each time.

For the compound `C[C@@H]1C[C@@H](O)c2ncnc(N3CCN(C(=O)[C@H](CNCCNC(=O)CN4CCC(CN5CCN(C(=O)c6cccc(C7CCCN(C(=O)CNC8CC8)C7)c6)CC5)CC4)c4ccc(Cl)cc4)CC3)c21` (stereo partly drawn) [Compound I-206], the IC50 in experiment [1], in experiment [2] and in experiment [3] was greater than 10 µM in each case.
